Measurements taken from ChEMBL document CHEMBL1156840, “Design, synthesis and biological evaluation of new 2,3-diarylquinoline derivatives as selective cyclooxygenase-2 inhibitors” (Bioorg Med Chem, 2010).

Target: T1, Prostaglandin G/H synthase 1 (Ovis aries, UniProt P05979)
T1 sequence (P05979 whole entry): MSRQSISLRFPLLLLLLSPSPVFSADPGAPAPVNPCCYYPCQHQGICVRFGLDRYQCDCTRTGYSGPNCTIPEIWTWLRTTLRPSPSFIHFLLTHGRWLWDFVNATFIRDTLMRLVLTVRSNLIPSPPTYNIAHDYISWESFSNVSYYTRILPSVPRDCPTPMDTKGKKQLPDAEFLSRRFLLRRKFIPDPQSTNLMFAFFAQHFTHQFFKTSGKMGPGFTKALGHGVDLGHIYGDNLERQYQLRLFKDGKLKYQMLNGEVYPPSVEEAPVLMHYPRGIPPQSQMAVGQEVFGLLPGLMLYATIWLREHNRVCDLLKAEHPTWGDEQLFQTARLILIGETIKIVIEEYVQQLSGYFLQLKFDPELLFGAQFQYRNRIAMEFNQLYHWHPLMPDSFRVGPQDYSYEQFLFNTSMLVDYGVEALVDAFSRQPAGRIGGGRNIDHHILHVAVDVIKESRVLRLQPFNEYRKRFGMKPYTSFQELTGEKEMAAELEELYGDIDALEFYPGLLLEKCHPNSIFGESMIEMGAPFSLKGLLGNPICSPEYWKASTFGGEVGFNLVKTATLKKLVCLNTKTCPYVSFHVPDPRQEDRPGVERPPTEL
Description: Inhibition of ovine COX1 by enzyme chemiluminescent enzyme assay

SMILES	IC50 [µM]
CS(=O)(=O)c1ccc(-c2nc3ccccc3cc2-c2ccccc2)cc1	33.5
CS(=O)(=O)c1ccc(-c2nc3ccccc3c(-c3ccccc3)c2-c2ccccc2)cc1	10.2

The remaining lines, values ahead:

IC50 [µM]	SMILES
14.4	CS(=O)(=O)c1ccc(-c2nc3ccccc3c(N)c2-c2ccccc2)cc1
13.3	Cc1c(-c2ccccc2)c(-c2ccc(S(C)(=O)=O)cc2)nc2ccccc12
48.1	CS(=O)(=O)c1ccc(-c2nc3ccccc3c(C(=O)O)c2-c2ccccc2)cc1
